Assay results as given in patent US9221875B2, “Amphiphilic peptides for treatment of keratitis” (Agency for Science, Technology and Research, priority 2013, dated 2015).
Values after ≈ are worked out from the molar mass of the structure shown. Read-outs that look alike come from different tables or passages of the source. Blank lines part the entries; values can stand above or below the molecule they belong to. Peptide text beside a SMILES is read from it.

Columns and labels:
[1] = test system: 5 microorganisms tested (S. epidermidis, S. aureus, E. coli, P. aeruginosa, C. albicans); test: Mean MIC over the panel and selectivity index (Example 1); assay type: cell-based
Description: Red blood cells suspension incubated with PBS was used as negative control.

F. solani = assay type: cell-based; details: 24 h
Description: (§1) The MICs of peptides were determined against the fungi C. albicans (American Type Culture Collection, ATCC) and F. solani (ATCC) by the broth microdilution method. […] F. solani, were cultured on sabouraud dextrose agar plates in incubator at 37° C. To collect conidia following incubation, conidia of F. solani species were harvested and standardized to 1×10^8 spores/ml before performing the experiments. Sabouraud dextrose broth (90 μL) was added to the wells of culture plates. […] The plates were incubated at 37° C. and examined macroscopically after 24 h for the growth of F. solani. Appropriate control wells without any treatment were included in the study. Peptide were considered to be active if the wells appeared clear without any visible growth of F. solani, and the results were expressed as MIC. The assay was performed in four replicates for each concentration.

C. albicans [2] = test: In vitro killing kinetics; assay type: cell-based, Candida albicans
Description: The killing kinetics test was performed to evaluate the antimicrobial activities of peptides against C. albicans. Yeast solution was re-suspended in YMB (Difco) to achieve from 10^5 to 10^6 CFU mL^−1. […] Each dilution (20 μL) was plated on agar plate, and incubated 2 days. Surviving colonies were counted after incubation. An untreated inoculum group was used as a negative control. Tests were conducted in triplicates, and the results were presented as killing efficiency (%).

[3] = Stability testing, autoclave and 6 weeks at room temperature, MALDI-TOF MS; assay type: physicochemical; details: 121° C. 15 min, 2 mg/mL, no protection from light
Description: Peptides 1 and 2 were dissolved in HPLC-grade water at 2 mg/mL, subjected to a standard steam sterilization autoclave cycle at 121° C. for 15 min, and allowed to stand at room temperature for a period of 6 weeks. The integrity of the peptides was determined by evaluating their molecular weights via MALDI-TOF MS before and after treatment.

C. albicans biofilm = test: Biofilm biomass assay, crystal violet; assay type: cell-based, Candida albicans; details: 500 mg/L, 24 h
Description: The biomass of the biofilms was estimated by a crystal violet staining assay. Briefly, the formed biofilms were first treated with the peptide for 24 h as described above. After aspirating the culture medium, the biofilms were rinsed once with PBS, fixed with methanol for 15 min at room temperature and stained with 100 μL of 0.1% (weight by volume) crystal violet for 10 min. The excess crystal violet dye was removed by rinsing the wells with DI water five times. The dye that is associated with the biofilm was extracted using 100 μL of 33% glacial acetic acid per well, and […] aliquot from each well was transferred to a new 96-well plate for quantification of absorbance at a wavelength of 570 nm using a microplate reader (TECAN, Switzerland). The relative amount of biomass remaining after peptide treatment was expressed as a percentage of the control treated with broth containing 10 vol % of water. Data represented mean±standard deviations of 4 replicates for each concentration.

S. epidermidis [4] = details: 18 h
S. aureus [5] = details: 18 h
E. coli [6] = details: 18 h
P. aeruginosa [7] = details: 18 h
C. albicans [8] = details: 42 h
C. albicans keratitis = test: Contact lens-associated C. albicans keratitis mouse model
rabbit red blood cells = assay type: cell-based; details: red cells of rabbit, 1 h
C. albicans [9] = assay type: cell-based, Candida albicans; details: 42 h
Description: as §1

S. epidermidis [10] = details: 18 h; remark: listed apart in the source
S. aureus [11] = details: 18 h; remark: listed apart in the source
E. coli [12] = details: 18 h; remark: listed apart in the source
P. aeruginosa [13] = details: 18 h; remark: listed apart in the source
C. albicans [14] = test system: C. albicans
[15] = topical eye drops, peptides 3000 mg/L, amphotericin B 1000 mg/L

MIC F. solani (F. solani): 31.3 mg/L (≈ 31.9 µM)
MIC S. epidermidis (S. epidermidis [4]): 2.0 mg/L (≈ 2.04 µM)
MIC S. aureus (S. aureus [5]): 125 mg/L (≈ 127 µM)
MIC E. coli (E. coli [6]): 31.3 mg/L (≈ 31.9 µM)
MIC P. aeruginosa (P. aeruginosa [7]): 31.3 mg/L (≈ 31.9 µM)
MIC C. albicans (C. albicans [8]): 2.0 mg/L (≈ 2.04 µM)
Structure (SMILES): CC[C@H](C)[C@H](N)C(=O)N[C@@H](CCCCN)C(=O)N[C@H](C(=O)N[C@@H](CCCCN)C(=O)N[C@H](C(=O)N[C@@H](CCCCN)C(=O)N[C@H](C(=O)N[C@@H](CCCCN)C(N)=O)[C@@H](C)CC)[C@@H](C)CC)[C@@H](C)CC [(IKIK)2-NH2] (H-IKIKIKIK-NH2; N-terminus assumed)
GM, geometric mean of MIC values for the 5 microorganisms tested [1]: 38.3 mg/L
time after which most fungi were killed (C. albicans [2]; at 2×MIC and 4×MIC): 1 h
time after which most fungi were killed (C. albicans [2]; at MIC): 4 h
molecular weight after autoclaving and 6 weeks at room temperature in water [3]: remained unchanged with no degradation products observed
biomass of C. albicans biofilm (C. albicans biofilm): decreased significantly
fungal cells eradicated from the biofilms compared to the untreated control group (C. albicans keratitis; C. albicans counts in mice cornea, agar plating): ~90%
depth of hyphal invasion into the cornea, PAS histology (C. albicans keratitis; [15]): reduced the maximal depth of hyphal invasion
resolution of the keratitis infection (eye appearance) (C. albicans keratitis; [15]): significant resolution of the keratitis infection
clinical scores of mice corneas (slit lamp) (C. albicans keratitis; topical eye drops, peptides 3000 mg/L, amphotericin B 1000 mg/L, P<0.01): significantly lower than that in the control group

MIC C. albicans (C. albicans [9]): >500 mg/L
MIC F. solani (F. solani): >500 mg/L
MIC S. epidermidis (S. epidermidis [10]): >500 mg/L
MIC S. aureus (S. aureus [11]): >500 mg/L
MIC E. coli (E. coli [12]): >500 mg/L
MIC P aeruginosa (P. aeruginosa [13]): >500 mg/L
MIC C. albicans (C. albicans [14]): 500 mg/L (≈ 482 µM)
Structure (SMILES): CC[C@H](C)[C@H](N)C(=O)N[C@H](C(=O)N[C@@H](CCCNC(=N)N)C(=O)N[C@@H](CCCCN)C(=O)N[C@H](C(=O)N[C@H](C(=O)N[C@@H](CCCNC(=N)N)C(=O)N[C@@H](CCCCN)C(N)=O)[C@@H](C)CC)[C@@H](C)CC)[C@@H](C)CC [Control-all L] (H-IIRKIIRK-NH2; N-terminus assumed)
HC10, haemolysis concentration 10%: lowest peptide concentration that induces ≧10% haemolysis (rabbit red blood cells): >2000 mg/L
